# Experiments:
# IL-8 = experiment: Neutrophil Chemokine Production Assay: IL-8; format: cell-based; details: human neutrophils, 12 h
# Procedure: (§1) A volume 25 mL of human blood was layered over 15 mL of Histopaque®-1077 and centrifuged at 500 g, R^T, for 30 min with no break applied to the centrifuge. The PBMC band and Histopaque®-1077 layer were removed leaving behind the bottom red layer which was mixed with 40 mL of 1× red blood cell (RBC) lysis buffer (Sigma-Aldrich) was and split into two 50 mL tubes. The volume for both fractions was brought to 50 mL with RBC lysis buffer, mixed by inversion, and then incubated at RT for 10 min. Solutions were centrifuged at 250 g, for 10 min at RT and the supernatant liquids removed. The reddish pellets were re-suspended in 1 mL of RBC lysis buffer and combined. The cell suspension was incubated for 5 min at RT in RBC lysis buffer. After incubation 45 mL of Hanks Balanced Salt Solution with no calcium, magnesium or phenol red (HBSS—) was added, the cell suspension was spun (250 g for 10 min at RT), and supernatant liquids were removed. The white pellet was re-suspended in 1 mL of HBSS—, and cell counts were determined. The neutrophil cell suspension was brought to a concentration of 1.11e6 cells/mL in RPMI complete (Sigma-Aldrich), and 180 μL of cell suspension was transferred to all wells within a sterile 96-well tissue culture treated plate resulting in 2.0×10^5 cells/well. […] After incubation, 10 μL of 2 μg/mL LPS solution in RPMI complete was added to each well except for control wells, which received an additional 10 μL of media. Cells were incubated for 12 h (37° C., 5% CO2), after which plates were centrifuged at 250 g, RT, for 5 min and supernatant liquids were obtained and stored at −80° C. until analyzed via Luminex® Multiplex Assay for various chemokines and cytokines. Three data points were acquired from two different blood donors and averaged.
# MIP-1α = experiment: Neutrophil Chemokine Production Assay: MIP-1α; format: cell-based; details: human neutrophils, 12 h
# Procedure: as §1
# MIP-1β = experiment: Neutrophil Chemokine Production Assay: MIP-1β; format: cell-based; details: human neutrophils, 12 h
# Procedure: as §1
# Caco-2 colonocytes = experiment: Human Caco-2 Barrier Integrity Assay, Study 1; format: cell-based; details: Caco-2, + cytokines (TNFα, IFNγ, IL-1β), 48 hours
# Procedure: Caco-2 colonocytes were maintained at 37° C. and 5% CO2 in Dulbecco's Modified Eagle Medium (DMEM) and supplemented with 10% FBS, 1% NEAA, 1% penicillin-streptomycin. At 70-80% confluency, cells were trypsinized and seeded in 0.4 cm^2 transwell collagen I coated membranes with supplemented DMEM in both apical and basolateral compartments. […] After 48 hours, TEER readings were taken again and viability was measured by CellTiter 96® AQueous One Solution Cell Proliferation Assay (Promega).
# naïve CD4+ T cells = experiment: Human Regulatory T Cell Differentiation Assay; format: cell-based; details: 6 days; for Cell viability % DMSO: viability dye; for activity at 1 µM: IL-2, 1 μM
# Procedure: Peripheral blood mononuclear cells (PBMCs) from whole blood donated by health volunteers were separated by Ficoll-Paque gradient centrifugation and naïve CD4^+ T cells were subsequently isolated using magnet beads (EasySep™ Human Naïve CD4^+ T Cell Isolation Kit, Cambridge, Mass.). For regulatory T cell (Treg) differentiation assay, naïve CD4^+ T cells were cultured (1-10×10^4 cells) in CTS OpTmizer medium for 6 days and stimulated with 5 ng/ml TGF-β, 100 U/ml IL-2, and ImmunoCult™ Human […] T Cell Activator; Stemcell #10990) with/without our Compounds. Cell viability was determined using a viability dye (eBioscience Fixable Viability Dye eFluor 780: ThermoFisher 65-0865-14) at 1:500 dilution. The cells were gated for Treg, defined as Live, CD11c^−, CD14^−, CD19^−, CD8^−, CD4^+, CD3^+, CD25^+, FOXP3^+. Percent (%) Tregs were calculated as percentage of CD4^+, CD25^+, FOXP3^+ cells over total CD4^+ T cells. Statistical analysis was performed with GraphPad Prism Software Using One-Way ANOVA.
# TNFα = experiment: Cytokine Release from Human PBMCs: TNFα; format: cell-based; details: LPS, 24 hours, Concentration 100 μM
# Procedure: (§2) Human donor blood (8 mL) was collected in sodium citrate CPT tubes and centrifuged at 1,600×g for 20 minutes at room temperature. Buffy coat containing PBMCs was collected and transferred to a 50 mL conical tube containing 30 mL of RPMI-1640 medium at room temperature (supplemented with penicillin-streptomycin). PBMCs samples were centrifuged at 400×g for 10 minutes at 10° C. The pelleted PBMCs were washed twice in 10 ml of RPMI-1640 medium (supplemented with penicillin-streptomycin), then resuspended in RPMI-1640 medium (supplemented with penicillin-streptomycin, fetal bovine serum, and L-Glutamine). PBMCs were filtered through a 70 micron mesh to remove any cellular debris. […] PBMCs in a 96-well plate were rested for 30 minutes in a 37° C., 5% CO2 incubator, then subsequently treated with 10 μI of indicated compound. After 2 hours 10 μL of LPS (0111:64) 1 mg/mL was added to test wells. After 24 hours of incubation at 37° C., 5% CO2, 100 μL of cell supernatant was collected and transferred to a 96-well plate (non-tissue treated, flat bottom). The plate was centrifuged at 350×g for 5 minutes at room temperature, and then the clear supernatant transferred to a new 96-well plate (non-tissue treated, flat bottom). The remaining cells were tested for viability using CellTiter-Glo® Luminescent Cell Viability Assay (Promega). The supernatant was analyzed for TNFα, IL-6 and IL-1β (kit […] Systems), using Luminex Immunoassay Technology (MAGPIX System).
# IL-6 = experiment: Cytokine Release from Human PBMCs: IL-6; format: cell-based; details: LPS, 24 hours, Concentration 100 μM
# Procedure: as §2
# IL-1β = experiment: Cytokine Release from Human PBMCs: IL-1β; format: cell-based; details: LPS, 24 hours, Concentration 100 μM
# Procedure: as §2
# AhR = target: T1, AhR (Homo sapiens, UniProt P35869); experiment: AhR Activation in Caco-2 Cells Through CYP1A1 mRNA Expression; details: overnight
# T1 sequence (P35869 11-848): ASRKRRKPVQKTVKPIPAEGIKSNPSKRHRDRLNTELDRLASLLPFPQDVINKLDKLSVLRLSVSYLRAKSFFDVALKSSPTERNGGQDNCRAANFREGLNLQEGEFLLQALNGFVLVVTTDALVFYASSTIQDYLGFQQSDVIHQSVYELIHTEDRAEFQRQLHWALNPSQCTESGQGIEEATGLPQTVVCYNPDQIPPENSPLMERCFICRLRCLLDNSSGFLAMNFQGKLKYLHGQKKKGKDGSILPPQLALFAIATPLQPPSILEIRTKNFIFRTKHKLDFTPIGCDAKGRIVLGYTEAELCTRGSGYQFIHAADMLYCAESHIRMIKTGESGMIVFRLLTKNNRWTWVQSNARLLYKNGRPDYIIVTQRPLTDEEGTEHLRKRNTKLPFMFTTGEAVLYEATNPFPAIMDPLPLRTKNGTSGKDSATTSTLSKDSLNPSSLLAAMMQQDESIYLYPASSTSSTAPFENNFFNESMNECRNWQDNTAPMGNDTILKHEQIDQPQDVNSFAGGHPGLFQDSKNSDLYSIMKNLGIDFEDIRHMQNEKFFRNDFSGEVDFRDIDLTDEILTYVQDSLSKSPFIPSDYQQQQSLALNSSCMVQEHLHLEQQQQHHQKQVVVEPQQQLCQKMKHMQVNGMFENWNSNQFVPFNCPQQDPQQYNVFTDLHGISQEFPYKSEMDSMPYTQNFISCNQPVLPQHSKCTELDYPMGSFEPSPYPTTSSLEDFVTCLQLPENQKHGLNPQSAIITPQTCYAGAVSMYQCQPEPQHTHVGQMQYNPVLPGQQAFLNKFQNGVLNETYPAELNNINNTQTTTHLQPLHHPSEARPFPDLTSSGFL
# Procedure: Caco-2 cells from American Type Culture Collection (ATCC) were plated in a sterile tissue culture treated 96-well plate (ThermoFisher) at 8.0×10^5 cells per well, and grown overnight at 37° C., 5% CO2 in DMEM complete (Gibco) in order to achieve confluence. After the incubation medium was aspirated off of the Caco-2 monolayers, tissues were then washed with 200 μL of warmed PBS solution, and subsequently 190 μL of pre-warmed growth medium was added to each well. Compounds of interest were diluted at a 20× concentration in growth medium containing 2% DMSO, and 10 μL of compound solutions were added to respective wells in triplicate. Compounds where incubated overnight at 37° C., 5% CO2. 2-(1′H-indole-3′-carbonyl)-thiazole-4-carboxylic acid methyl ester (ITE) was used as the positive control for AhR activation at 1 and 100 μM concentrations. At the end of the incubation, medium was aspirated off of the Caco-2 cells, and washed with 100 μL of cold PBS solution. RNA was extracted via the TaqMan™ Gene Expression Cells-to-CT™ Kit (ThermoFisher) according to the manufacturer's protocol. The QuantStudio 6 Flex (Applied Biosciences) was used to analyze mRNA levels of CYP1A1 using GAPDH as the endogenous control. TaqMan™ probe sets for both genes were acquired from ThermoFisher. Samples were run in triplicate and data was analyzed using the QuantStudio software and reported as linear (Table 6) and log 2(ΔΔCT) values. Statistical analysis was performed using a two-tailed t-test comparing CYP1A1 levels in the presence of each individual compound to the vehicle negative control.
# [1] = Homo sapiens, 144 h, TGF-β, read-out: Treg induction % DMSO
smiles,measurement,setting,value
"C[C@@H](O)CCO [(R) 1,3-butanediol]",% IL-8 (Vehicle + LPS = 100%),IL-8; Conc. 100.0 μM,− (− = >90% Vehicle)
same,% IL-8 (Vehicle + LPS = 100%),IL-8; Conc. 500.0 μM,− (− = >90% Vehicle)
same,% MIP-1α (Vehicle + LPS = 100%),MIP-1α; Conc. 100.0 μM,− (− = >90% Vehicle)
same,% MIP-1α (Vehicle + LPS = 100%),MIP-1α; Conc. 500.0 μM,− (− = >90% Vehicle)
same,% MIP-1β (DMSO + LPS = 100%),MIP-1β; Conc. 100.0 μM,+ (+ = <90% Vehicle)
same,% MIP-1β (DMSO + LPS = 100%),MIP-1β; Conc. 500.0 μM,+ (+ = <90% Vehicle)
same,% Change in TEER from DMSO,Caco-2 colonocytes; 100 μM,− (<125%: −)
same,% Change in TEER from DMSO,Caco-2 colonocytes; 0.5 mM,− (<125%: −)
same,Cell viability % DMSO,naïve CD4+ T cells; 100 μM,= (90% > <110%: =)
same,Cell viability % DMSO,naïve CD4+ T cells; 0.5 mM,= (90% > <110%: =)
same,activity at 100 µM,"naïve CD4+ T cells; Homo sapiens, 144 h, TGF-β, IL-2, 100 μM, read-out: Treg induction % DMSO",90 to 110%
same,activity at 500 µM,"naïve CD4+ T cells; Homo sapiens, 144 h, TGF-β, IL-2, 0.5 mM, read-out: Treg induction % DMSO",90 to 110%
same,TNFα % of DMSO control,TNFα,= ((=) 90% > <110% DMSO)
same,IL6 % DMSO control,IL-6,= ((=) 90% > <110% DMSO)
same,IL1β % DMSO control,IL-1β,= ((=) 90% > <110% DMSO)
"COC(=O)c1csc(C(=O)c2c[nH]c3ccccc23)n1 [ITE, 2-(1′H-indole-3′-carbonyl)-thiazole-4-carboxylic acid methyl ester, reference compound]",Average CYP1A1 mRNA levels,AhR; Conc. 1.0 μM,+++ (+++ = >10-fold Vehicle)
CC(O)CCO (centres unmarked) [butanediol],Average CYP1A1 mRNA levels,AhR; Conc. 500.0 μM,− (− = <2-fold Vehicle)
O=c1c(O)c(-c2ccc(O)c(O)c2)oc2cc(O)cc(O)c12 [quercetin],% IL-8 (Vehicle + LPS = 100%),IL-8; Conc. 0.1 μM,− (− = >90% Vehicle)
same,% IL-8 (Vehicle + LPS = 100%),IL-8; Conc. 1.0 μM,− (− = >90% Vehicle)
same,% MIP-1α (Vehicle + LPS = 100%),MIP-1α; Conc. 0.1 μM,− (− = >90% Vehicle)
same,% MIP-1α (Vehicle + LPS = 100%),MIP-1α; Conc. 1.0 μM,− (− = >90% Vehicle)
same,% MIP-1β (DMSO + LPS = 100%),MIP-1β; Conc. 0.1 μM,− (− = >90% Vehicle)
same,% MIP-1β (DMSO + LPS = 100%),MIP-1β; Conc. 1.0 μM,− (− = >90% Vehicle)
same,% Change in TEER from DMSO,Caco-2 colonocytes; 100 nM,− (<125%: −)
same,% Change in TEER from DMSO,Caco-2 colonocytes; 1 μM,+ (125% > <150%: +)
same,Cell viability % DMSO,naïve CD4+ T cells; 100 nM,= (90% > <110%: =)
same,Cell viability % DMSO,naïve CD4+ T cells; 1 μM,= (90% > <110%: =)
same,activity at 0.1 µM,"naïve CD4+ T cells; Homo sapiens, 144 h, TGF-β, IL-2, 100 nM, read-out: Treg induction % DMSO",90 to 110%
same,activity at 1 µM,naïve CD4+ T cells; [1],90 to 110%
same,TNFα % of DMSO control,TNFα,+ ((+) 50% > <90% DMSO)
same,IL6 % DMSO control,IL-6,+ ((+) 50% > <90% DMSO)
same,IL1β % DMSO control,IL-1β,+ ((+) 50% > <90% DMSO)
Oc1ccc(C=Cc2cc(O)cc(O)c2)cc1 [resveratrol],% IL-8 (Vehicle + LPS = 100%),IL-8; Conc. 10.0 μM,− (− = >90% Vehicle)
same,% MIP-1α (Vehicle + LPS = 100%),MIP-1α; Conc. 10.0 μM,+ (+ = <90% Vehicle)
same,% MIP-1β (DMSO + LPS = 100%),MIP-1β; Conc. 10.0 μM,++ (++ = <70% Vehicle)
same,% Change in TEER from DMSO,Caco-2 colonocytes; 10 μM,− (<125%: −)
same,% Change in TEER from DMSO,Caco-2 colonocytes; 100 μM,+++ (200%>: +++)
same,Cell viability % DMSO,naïve CD4+ T cells; 1 μM,− (<90%: −)
same,Cell viability % DMSO,naïve CD4+ T cells; 10 μM,− (<90%: −)
same,activity at 1 µM,naïve CD4+ T cells; [1],110 to 130%
same,activity at 10 µM,"naïve CD4+ T cells; Homo sapiens, 144 h, TGF-β, IL-2, 10 μM, read-out: Treg induction % DMSO",110 to 130%
same,TNFα % of DMSO control,TNFα,+ ((+) 50% > <90% DMSO)
same,IL6 % DMSO control,IL-6,+ ((+) 50% > <90% DMSO)
same,IL1β % DMSO control,IL-1β,= ((=) 90% > <110% DMSO)
